Source: patent US20240093184A1, “CHEMICALLY REVERSIBLE 2`-OH ACYLATION PROTECTS RNA FROM HYDROLYTIC AND ENZYMATIC DEGRADATION” (The Board of Trustees of the Leland Stanford Junior …, priority 2022, published 2024)

Key:
eGFP-mRNA [1] = test: Accelerated RNA aging of cloaked eGFP-mRNA in RNase-free water at 37° C., capillary electrophoresis; format: physicochemical; conditions: for resistance of cloaked eGFP-mRNA to thermal degradation: equivalently cloaked (˜50% of unpaired accessible 2′-OH); for extension of lifespan of eGFP-mRNA: extensive cloaking (>90% of accessible 2′-hydroxyls)
Protocol: (§1) In this example, the capacity to use this RNA cloaking strategy to stabilize RNA in solution was assessed with accelerated RNA aging experiments by incubating eGFP-mRNA species with or without cloaking with NAIN3 ((2-(azidomethyl)pyridin-3-yl)(1H-imidazol-1-yl)methanone) in RNase-free water at a mildly elevated temperature (37° C.) (FIG. 1). We then evaluated the lifespan of the mRNA by measuring the relative fraction of remaining fully intact RNA over time. […] Acylation-induced stabilization was further tested on a second, longer mRNA. […] No depurination of adenosine and […] was observed during the span of degradation experiments (FIG. 2). See, for example, FIG. 1.
(§2) We screened these acylimidazole reagents for modulation of RNA thermal degradation by performing accelerated RNA aging experiments with eGFP-mRNA aliquots that were equivalently cloaked (˜50% of unpaired accessible 2′-OH). Representative CE data are shown in FIG. 1 for cloaked eGFP-mRNA, which resisted thermal degradation across broad substituent types. […] Noting subtle differences in the stabilization, we hypothesized that the varying protection afforded by the reagents might arise from differential hydrolytic stability of their adducts; this was later confirmed (see below). […] To compensate for this, more extensive cloaking by N,N-dimethylglycine (DMG) acylimidazole (>90% of unpaired accessible 2″-OH) extended the lifespan of eGFP-m RNA by ˜5-fold.

18nt model RNA = test: Nucleophile screen for removal (uncloaking) of 2′-acyl adducts; format: physicochemical; conditions: for reversibility of acyl adducts by nucleophiles: 37° C., neutral pH
From the text: Nucleophiles are known to catalyze ester hydrolysis; examples include the use of imidazole and pyridine as nucleophilic catalysts. To restore biological activity of RNAs after cloaking-based stabilization, we tested uncloaking strategies to promote rapid hydrolysis of 2′-carboxyl esters with weakly basic nucleophiles (FIG. 5). […] In the library design, we avoided the use of strong Bronsted bases to prevent hydrolytic RNA backbone cleavage. Nucleophiles were screened against the 18nt model RNA containing acyl groups of each type at 37° C. and neutral pH, which identified at least 9 sensitive acylation-nucleophile pairs that promoted >50% removal of adducts within 2 hours. […] Other adducts can also be rapidly removed with designated nucleophiles, with half-lives for reversal ranging from 1.1 to 1.8 hours.
For 2′-acyl adduct by DMG, the effects of the biocompatible tris(hydroxymethyl) aminomethane (Tris) buffer alone were substantial, consistent with previous reports that Tris can hydrolyze active esters.

Fluc-mRNA = test: Accelerated RNA aging of cloaked Fluc-mRNA in water at 37° C.; format: physicochemical; conditions: extensive cloaking (>90% of unpaired 2′-hydroxyls), six days in water
Protocol: as §1

HeLa cells [2] = test: Translation of cloaked eGFP-mRNA in transfected HeLa cells (flow cytometry, fluorescence imaging); format: cell-based, human; conditions: intermediately cloaked, over two days
From the text: Intact cells maintain high intracellular concentrations of nucleophilic species such as cysteine and glutathione. […] In this example, we employed cloaked mRNAs encoding fluorescent reporter proteins. Indeed, we observed the emergence of strong green fluorescence signals by flow cytometry over a period of two days in HeLa cells transfected with intermediately DMG-cloaked eGFP-mRNA. […] Moreover, the delayed translation of cloaked mRNAs reflects an initial uncloaking step, which when occurring over time may provide slow-release translation kinetics—reducing an early expression peak and extending the duration of translation (see below). Finally, we also observed that translation of eGFP-mRNA with alkoxyl acyl adduct can also be restored in cells, highlighting possible control over mRNA release kinetics by modification of the acyl group.

EMX1-sgRNA [3] = test: In vitro DNA cleavage function of CRISPR sgRNA; format: biochemical; conditions: Tris for DMG-cloaked sgRNA, DABCO for alkoxy acylimidazole-cloaked sgRNA; neutral pH, 11 hours
eGFP-mRNA [4] = test: In vitro translation assay of cloaked and uncloaked eGFP-mRNA; format: biochemical
From the text: introduced into the coding region of mRNAs. Thus, we investigated whether Tris could restore the translation of a model eGFP-mRNA densely cloaked (50%) by DMG acylimidazole. […] To explore the generality of this observation, we applied the methods to an in vitro transcribed CRISPR sgRNA. Acylation of EMX1-sgRNA by other reagents blocked its cleavage function (<10%) in vitro.

[5] = tested on: mRNAs (TBP, PPIE, and PSMB6); conditions: HEK293 total RNA cloaked with DMG acylimidazole; Tris alone, neutral pH, 24 h
Protocol: For instance, the ability of a single 2′-acylation to halt reverse transcriptase during primer extension necessitates efficient 2′-deacylation to avoid premature reverse transcription termination. […] We isolated and cloaked total cellular RNA from HEK293 cells with DMG acylimidazole, and recovery efficiency was evaluated for three representative mRNAs by the reverse transcription efficiencies. […] Recent experiments have shown that local 2′-acylation can terminate translation when

EMX1-sgRNA [6] = test: Storage of cloaked EMX1-sgRNA in frozen RNase-free water (−80° C.); format: physicochemical; conditions: 9 months
Protocol: FIG. 4. Integrity of cloaked EMX1-sgRNA (105 nt) upon incubation in frozen RNase-free water after 9 months (−80° C.).
as §2

SW480 = test: Translation of cloaked eGFP-mRNA in SW480 cells; format: cell-based, human
[7] = Serum stability of cloaked RNA motifs; format: in vitro ADME
From the text: (§3) In this example, we systematically characterized how acylimidazoles affect enzymatic degradation of EMX1-sgRNA in serum, a 105nt single guide RNA (sgRNA) for CRISPR-Cas9 gene editing (FIG. 7). […] Among all reagents, DMG acylimidazole enhanced sgRNA stability the most, by up to 14-fold. […] Although such protection most likely extends to other RNAs, the secondary structures of RNA may influence the magnitude of enhancement in enzymatic stability. […] This is likely due in part to different RNA motifs having distinct “hotspots” for enzymatic degradation, which may not be completely shielded by cloaking. Taken together, 2′-acylation effectively enhances the serum stability of RNA, the magnitude of which may be influenced by the length and structure of the underlying RNA.

HeLa cells [8] = test: Translation of cloaked d2GFP-mRNA in HeLa cells; format: cell-based, human
Protocol: We therefore adopted a reporter system employing mRNA encoding a destabilized green fluorescent protein d2GFP, where both mRNA and protein degradation occur with similar half-lives of ˜2-3 hours. We observed that the translation of unprotected d2GFP-mRNA quickly descended after peaking. […] Taken together, RNA cloaking by DMG derivative DMG acylimidazole effectively extended d2GFP-mRNA functional lifespan and translation, providing insights for the potential use of reversible 2′-acylation as a modulator of mRNA translation kinetics.

HEK293 = test: Translation of cloaked eGFP-mRNA in HEK293 cells; format: cell-based, human
RNase A = test: Nucleolytic degradation of cloaked eGFP-mRNA by RNase A; format: biochemical
From the text: (§4) In this example, we systemically surveyed protective effects of cloaking with representative RNases and biofluids, recapitulating the common enzymatic conditions RNAs encounter during storage, handling, and application (FIG. 7). […] We next evaluated whether cloaking could ameliorate mRNA degradation in fetal bovine serum (FBS), a frequent component of eukaryotic cell culture (FIG. 8). […] This is likely due in part to DMG acylimidazole retaining RNA secondary structures and helicity for maximum resistance to RNases. Acylating reagents also protect eGFP-mRNA against FBS to varying degrees. […] Thus, 2′-acylation provides context-dependent protection of long RNA (e.g., mRNA) against ribonucleolytic enzymes. Reagent DMG acylimidazole effectively shields mRNA against a broad range of RNases.

RNase T1 = test: Nucleolytic degradation of cloaked eGFP-mRNA by RNase T1; format: biochemical
From the text: as §4

[9] = Serum stability of cloaked EMX1-sgRNA; format: in vitro ADME; conditions: 105nt sgRNA
From the text: as §3

CC(=O)n1ccnc1 [acetylimidazole]
resistance of cloaked eGFP-mRNA to thermal degradation (eGFP-mRNA [1]): attenuated RNA hydrolysis
reversibility of acyl adducts by nucleophiles (18nt model RNA): relatively resistant to reversal by nonbasic nucleophiles
reversal of 2′-acyl adduct by Tris buffer alone (18nt model RNA): not reversed by Tris

[N-]=[N+]=NCc1ncccc1C(=O)n1ccnc1 [NAIN3, (2-(azidomethyl)pyridin-3-yl)(1H-imidazol-1-yl)methanone, reference compound]
backbone cleavage of Fluc-mRNA (Fluc-mRNA): almost completely blocked backbone cleavage
extension of lifespan of eGFP-mRNA (eGFP-mRNA [1]; RNase-free water, 37° C.): -7 fold
extension of lifespan of intact eGFP-mRNA (eGFP-mRNA [1]; intermediate cloaking (˜50% of unpaired 2′-hydroxyls), RNase-free water, 37° C.): -3 fold
damage to the nucleobases (deamination of adenine and cytosine) (eGFP-mRNA [1]; within the timespan of the aging experiment): No damage to the nucleobases
translation of cloaked eGFP-mRNA in cells (HeLa cells [2]): translation remained strongly inhibited
reversibility of acyl adducts by nucleophiles (18nt model RNA): can be reversed via Staudinger reaction

C1CN2CCN1CC2 [DABCO, 1,4-diazabicyclo[2.2.2]octane]
restoration of DNA cleavage of cloaked sgRNA (EMX1-sgRNA [3]): fully restored DNA cleavage

O=C(c1cccnc1)n1ccnc1 [nicotinic acid acylimidazole]
reversibility of acyl adducts by nucleophiles (18nt model RNA): relatively resistant to reversal by nonbasic nucleophiles

tris(hydroxymethyl)aminomethane
restoration of DNA cleavage of cloaked sgRNA (EMX1-sgRNA [3]): fully restored DNA cleavage
restoration of eGFP expression (eGFP-mRNA [4]; DMG acylimidazole-cloaked eGFP-mRNA, Tris, pH=7.5 at 37° C.): up to 87%
recovery of reverse transcription of cloaked mRNAs [5]: reinstated the reverse transcription

CCOCC(=O)n1ccnc1 [ethoxyacetyl compound]
resistance of cloaked eGFP-mRNA to thermal degradation (eGFP-mRNA [1]): providing the most stability

CN(C)CC(=O)n1ccnc1 [DMG acylimidazole, N,N-dimethylglycine (DMG) acylimidazole]
stability of in vitro transcribed EMX1-sgRNA on storage (EMX1-sgRNA [6]): enhanced stability
recovery of eGFP expression (SW480): confirmed generality
serum stability of a bulge loop RNA motif ([7]; bulge loop): increases the serum stability
serum stability of an internal loop motif ([7]; internal loop): minimal enhancement
serum stability of a structurally complex pseudoknot ([7]; pseudoknot): increases the serum stability
resistance of cloaked eGFP-mRNA to thermal degradation (eGFP-mRNA [1]): slightly reduced enhancement of RNA thermal stability
extension of lifespan of eGFP-mRNA (eGFP-mRNA [1]; RNase-free water, 37° C.): ~5 fold
translation of cloaked eGFP-mRNA in vitro (eGFP-mRNA [4]; eGFP-mRNA densely cloaked (50%)): strongly blocked the translation
enhancement of total protein output of d2GFP-mRNA (HeLa cells [8]; HeLa cells, versus unprotected d2GFP-mRNA): 31%
duration of sustained d2GFP-mRNA translation at its peak level (HeLa cells [8]; intermediate cloaking, HeLa): ~10 h
recovery of eGFP expression (HEK293): confirmed generality
protection of eGFP-mRNA from nucleolytic degradation by RNase A (RNase A): effectively shielded
reversal of 2′-acyl adduct by Tris buffer alone (18nt model RNA): substantial
protection of eGFP-mRNA from nucleolytic degradation by RNase T1 (RNase T1): effectively shielded
increase in serum stability of EMX1-sgRNA [9]: up to 14 fold
